{
  "source": "ChEMBL document CHEMBL4251556",
  "about": "“Selective kappa opioid antagonists for treatment of addiction, are we there yet?” (Eur J Med Chem, 2017)",
  "key": {"Rattus norvegicus": {"tested_on": "Rattus norvegicus", "assay": "[…] activity in po dosed rat assessed as reversal of U-69593-induced pain response", "type": "functional"}, "[1]": {"assay": "Selectivity ratio of Ki for delta-opioid receptor in rat brain membranes to Ki for kappa opioid receptor in guinea pig brain membranes", "type": "cell membranes"}, "[2]": {"assay": "Selectivity ratio of Ki for mu-opioid receptor in rat brain membranes to Ki for kappa opioid receptor in guinea pig brain membranes", "type": "cell membranes"}, "[3]": {"biological_target": "Kappa-type opioid receptor (Cavia porcellus) (UniProt P41144)", "sequence (P41144 whole entry)": "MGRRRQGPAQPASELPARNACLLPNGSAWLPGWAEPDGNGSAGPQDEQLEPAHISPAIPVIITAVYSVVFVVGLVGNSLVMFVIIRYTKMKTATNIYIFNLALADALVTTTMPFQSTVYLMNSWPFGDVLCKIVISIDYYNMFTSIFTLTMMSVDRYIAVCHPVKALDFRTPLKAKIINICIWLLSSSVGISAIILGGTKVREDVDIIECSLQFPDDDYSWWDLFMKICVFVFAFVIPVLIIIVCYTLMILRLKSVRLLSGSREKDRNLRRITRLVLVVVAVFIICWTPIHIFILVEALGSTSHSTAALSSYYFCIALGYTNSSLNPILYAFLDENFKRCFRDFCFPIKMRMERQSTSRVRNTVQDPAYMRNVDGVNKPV", "assay": "Displacement of [3H]CI-977 from kappa opioid receptor in guinea pig brain membranes after 2 hrs by scintillation counting method", "type": "cell membranes", "settings": "Membrane, concentration not given here"}, "Homo sapiens [4]": {"species_on_record": "Homo sapiens", "assay": "Selectivity ratio of Ki for delta opioid receptor (unknown origin) to Ki for kappa opioid receptor (unknown origin)"}, "Homo sapiens [5]": {"species_on_record": "Homo sapiens", "assay": "Selectivity ratio of Ki for Mu opioid receptor (unknown origin) to Ki for kappa opioid receptor (unknown origin)"}, "[6]": {"biological_target": "T1, Kappa-type opioid receptor (Homo sapiens, UniProt P41145)", "T1 sequence (P41145 whole entry)": "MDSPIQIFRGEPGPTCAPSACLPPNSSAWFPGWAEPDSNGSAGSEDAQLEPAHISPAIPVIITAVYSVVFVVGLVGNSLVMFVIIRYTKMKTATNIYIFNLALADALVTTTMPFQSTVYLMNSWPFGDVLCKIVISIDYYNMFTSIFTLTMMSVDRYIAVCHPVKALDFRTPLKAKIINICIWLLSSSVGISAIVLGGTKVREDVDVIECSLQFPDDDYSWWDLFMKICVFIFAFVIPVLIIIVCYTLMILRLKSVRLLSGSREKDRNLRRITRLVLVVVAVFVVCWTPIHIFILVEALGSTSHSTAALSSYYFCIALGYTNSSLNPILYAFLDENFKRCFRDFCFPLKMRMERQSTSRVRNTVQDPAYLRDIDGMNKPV", "assay": "Antagonist activity at kappa opioid receptor (unknown origin)", "type": "functional"}, "Mu-type opioid receptor [7]": {"biological_target": "Mu-type opioid receptor (Homo sapiens, UniProt P35372)", "sequence (P35372 whole entry)": "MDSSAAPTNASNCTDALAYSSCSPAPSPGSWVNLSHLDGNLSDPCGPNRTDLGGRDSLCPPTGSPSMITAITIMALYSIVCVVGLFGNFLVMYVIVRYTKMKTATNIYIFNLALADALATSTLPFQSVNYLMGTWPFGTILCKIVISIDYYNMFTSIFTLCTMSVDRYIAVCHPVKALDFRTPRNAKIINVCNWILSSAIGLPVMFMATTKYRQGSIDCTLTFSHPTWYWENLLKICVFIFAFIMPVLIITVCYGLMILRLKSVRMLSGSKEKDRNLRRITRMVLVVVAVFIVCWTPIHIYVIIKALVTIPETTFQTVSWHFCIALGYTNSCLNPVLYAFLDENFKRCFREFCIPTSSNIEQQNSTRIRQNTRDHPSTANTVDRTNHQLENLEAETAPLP", "assay": "Antagonist activity at human mu opioid receptor expressed in CHO cells assessed as stimulation of [35S]GTPgammaS", "type": "functional, cell-based"}, "[8]": {"biological_target": "T1, Kappa-type opioid receptor", "assay": "Antagonist activity at human kappa opioid receptor expressed in CHO cells assessed as stimulation of [35S]GTPgammaS", "type": "functional, cell-based"}, "[9]": {"biological_target": "Delta-type opioid receptor (Homo sapiens, UniProt P41143)", "sequence (P41143 whole entry)": "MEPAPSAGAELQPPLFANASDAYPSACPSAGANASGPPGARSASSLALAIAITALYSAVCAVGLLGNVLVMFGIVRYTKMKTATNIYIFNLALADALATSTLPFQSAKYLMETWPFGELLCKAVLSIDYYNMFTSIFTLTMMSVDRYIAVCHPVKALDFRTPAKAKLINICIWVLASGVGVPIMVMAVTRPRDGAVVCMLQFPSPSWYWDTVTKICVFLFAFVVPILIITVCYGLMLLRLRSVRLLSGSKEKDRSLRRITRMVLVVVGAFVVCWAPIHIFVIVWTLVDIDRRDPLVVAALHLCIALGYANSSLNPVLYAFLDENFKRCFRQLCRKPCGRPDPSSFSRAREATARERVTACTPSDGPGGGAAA", "assay": "Antagonist activity at human delta opioid receptor expressed in CHO cells assessed as stimulation of [35S]GTPgammaS", "type": "functional, cell-based"}, "[10]": {"biological_target": "T1, Kappa-type opioid receptor", "assay": "Displacement of [3H]-diprenorphine from human kappa opioid receptor expressed in CHO cells after 1 hr", "type": "cell-based"}, "[11]": {"assay": "Selectivity ratio of Ki for rat mu-opioid receptor in expressed in rat C6 cell membranes to Ki for human kappa opioid receptor expressed in CHO cell membranes", "type": "cell-based"}, "Mu-type opioid receptor [12]": {"biological_target": "T2, Mu-type opioid receptor (Rattus norvegicus, UniProt P33535)", "T2 sequence (P33535 whole entry)": "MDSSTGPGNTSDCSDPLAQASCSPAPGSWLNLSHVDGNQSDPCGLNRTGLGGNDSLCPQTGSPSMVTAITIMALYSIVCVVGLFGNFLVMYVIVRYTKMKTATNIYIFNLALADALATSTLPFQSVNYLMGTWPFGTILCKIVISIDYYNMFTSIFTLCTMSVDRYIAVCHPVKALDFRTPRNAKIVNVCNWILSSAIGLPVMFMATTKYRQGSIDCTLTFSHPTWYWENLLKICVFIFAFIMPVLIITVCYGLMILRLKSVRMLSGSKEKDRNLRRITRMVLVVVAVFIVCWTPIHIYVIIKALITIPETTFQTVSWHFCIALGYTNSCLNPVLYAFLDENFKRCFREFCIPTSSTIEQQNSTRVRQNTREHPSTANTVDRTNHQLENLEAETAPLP", "assay": "Displacement of [3H]-diprenorphine from rat mu-opioid receptor in expressed in rat C6 cell membranes after 1 hr"}, "Oryctolagus cuniculus": {"species_on_record": "Oryctolagus cuniculus", "assay": "Antagonist activity at KOR in Japanese white rabbit vas deferens assessed as inhibition of asimadoline-induced suppression of electric field stimulated twitch response after 30 mins"}, "[13]": {"biological_target": "G_PROTEIN_RECEP_F1_2 domain-containing protein (Cavia porcellus, UniProt A0A286XTF2)", "sequence (A0A286XTF2 whole entry)": "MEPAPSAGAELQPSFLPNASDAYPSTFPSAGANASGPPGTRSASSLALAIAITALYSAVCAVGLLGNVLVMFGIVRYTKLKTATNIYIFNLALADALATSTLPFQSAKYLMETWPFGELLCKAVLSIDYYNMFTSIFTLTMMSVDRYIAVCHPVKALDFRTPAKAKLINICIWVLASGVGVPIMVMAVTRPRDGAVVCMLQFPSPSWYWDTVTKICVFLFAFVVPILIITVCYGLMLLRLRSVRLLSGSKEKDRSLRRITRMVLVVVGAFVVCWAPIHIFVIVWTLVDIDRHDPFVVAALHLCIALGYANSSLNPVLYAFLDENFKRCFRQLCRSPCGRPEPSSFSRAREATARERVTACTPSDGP", "assay": "Displacement of [3H]DPDPE from delta-opioid receptor in guinea pig brain membranes after 30 mins by scintillation counting method", "type": "cell membranes, Membrane"}, "[14]": {"biological_target": "Kappa-type opioid receptor (Cavia porcellus, UniProt P41144)", "sequence (P41144 whole entry)": "as the sequence (P41144 whole entry) above", "assay": "Displacement of [3H]U69,593 from kappa opioid receptor in guinea pig brain membranes after 2 hrs", "type": "cell membranes, Membrane"}, "Mu-type opioid receptor [15]": {"biological_target": "T2, Mu-type opioid receptor", "assay": "Displacement of [3H]DAMGO from mu-opioid receptor in rat brain membranes after 2 hrs", "type": "cell membranes, Membrane"}, "[16]": {"biological_target": "Delta-type opioid receptor (Rattus norvegicus, UniProt P33533)", "sequence (P33533 whole entry)": "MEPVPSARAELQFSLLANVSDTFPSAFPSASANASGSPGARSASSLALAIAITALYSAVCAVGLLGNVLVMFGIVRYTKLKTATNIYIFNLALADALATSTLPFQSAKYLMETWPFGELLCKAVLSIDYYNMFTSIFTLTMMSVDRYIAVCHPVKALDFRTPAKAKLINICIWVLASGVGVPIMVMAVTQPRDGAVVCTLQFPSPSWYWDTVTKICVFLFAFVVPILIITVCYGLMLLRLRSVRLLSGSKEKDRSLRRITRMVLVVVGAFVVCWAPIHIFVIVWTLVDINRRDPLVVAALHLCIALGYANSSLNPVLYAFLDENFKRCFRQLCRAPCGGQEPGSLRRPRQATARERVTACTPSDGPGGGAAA", "assay": "Displacement of [3H]DADLE from delta-opioid receptor in rat brain membranes after 2 hrs", "type": "cell membranes, Membrane"}},
  "note": "Residues, ends and D or L forms follow the SMILES beside them.",
  "data": [
    {"smiles": "Cc1cc(C)cc([C@@H]2CCCN2Cc2ccc(Oc3ccc(C(N)=O)cc3F)cc2)c1", "note": "[ATICAPRANT]", "values": [
      {"measurement": "ED50", "setting": "Rattus norvegicus", "result": 0.4, "unit": "mg/kg"}
    ]},
    {"smiles": "CC(C)[C@@H](CN1CC[C@@](C)(c2cccc(O)c2)[C@@H](C)C1)NC(=O)[C@H]1Cc2ccc(O)cc2CN1C(=O)CN(C)C", "values": [
      {"measurement": "Ratio Ki", "setting": "[1]", "result": "> 219"},
      {"measurement": "Ratio Ki", "setting": "[2]", "result": 11}
    ]},
    {"smiles": "CC(C)CNCc1ccc(-c2ccccc2S(=O)(=O)N2CCCC2)cc1", "values": [
      {"measurement": "inhibition", "setting": "[3]", "result": 82, "unit": "%"}
    ]},
    {"smiles": "CC(=O)N[C@@H](Cc1ccccc1)C(=O)N[C@@H](Cc1ccccc1)C(=O)N[C@@H](Cc1ccccc1)C(=O)N[C@@H](CCCNC(=N)N)C(=O)N[C@@H](CC(C)C)C(=O)N[C@@H](CCCNC(=N)N)C(=O)N[C@@H](CCCNC(=N)N)C(=O)N[C@H](C)C(=O)N[C@@H](CCCNC(=N)N)C(=O)N1CCC[C@H]1C(=O)N[C@@H](CCCCN)C(N)=O", "note": "(HELM PEPTIDE1{[ac].F.F.F.R.L.R.R.[dA].R.P.K.[am]}$$$$V2.0)", "values": [
      {"measurement": "Ratio Ki", "setting": "Homo sapiens [4]", "result": 583},
      {"measurement": "Ratio Ki", "setting": "Homo sapiens [5]", "result": 174},
      {"measurement": "Ki", "setting": "[6]", "result": 10, "unit": "nM"}
    ]},
    {"smiles": "CCCCC(=N)NCCc1ccc2c(c1)C1C[C@@]3(O)[C@H]4Cc5ccc(O)c6c5[C@@]3(CCN4CC3CC3)[C@@H](O6)C1N2", "note": "(some centres not stated)", "values": [
      {"measurement": "Ki", "setting": "Mu-type opioid receptor [7]", "result": 5.33, "unit": "nM"},
      {"measurement": "Ki", "setting": "[8]", "result": 0.17, "unit": "nM"},
      {"measurement": "Ki", "setting": "[9]", "result": 3.31, "unit": "nM"}
    ]},
    {"smiles": "C[C@H]1CN(CCCOC(=O)[C@H]2Cc3ccc(O)cc3CN2)CC[C@@]1(C)c1cccc(O)c1", "values": [
      {"measurement": "Ki", "setting": "[10]", "result": 174, "unit": "nM"},
      {"measurement": "Ratio Ki", "setting": "[11]", "result": 0.54},
      {"measurement": "Ki", "setting": "Mu-type opioid receptor [12]", "result": 93, "unit": "nM"}
    ]},
    {"smiles": "CCOC(=O)C(CN1CC[C@@](C)(c2cccc(O)c2)[C@@H](C)C1)OC(=O)[C@H]1Cc2ccc(O)cc2CN1", "note": "(some centres not stated)", "values": [
      {"measurement": "Ki", "setting": "[10]", "result": 2.39, "unit": "nM"}
    ]},
    {"smiles": "O=C1N[C@@H](Cc2ccccc2)C(=O)N2CCC[C@@H]2C(=O)N[C@@H](Cc2ccccc2)C(=O)N[C@H]1Cc1c[nH]c2ccccc12", "note": "(HELM PEPTIDE1{F.W.F.[dP]}$PEPTIDE1,PEPTIDE1,1:R1-4:R2$$$V2.0)", "values": [
      {"measurement": "ED50", "setting": "Oryctolagus cuniculus", "result": 1.3, "unit": "µM"},
      {"measurement": "IC50", "setting": "[13]", "result": 2600, "unit": "nM"}
    ]},
    {"smiles": "C[C@H]1CN(CCOC(=O)[C@H]2Cc3ccc(O)cc3CN2)CC[C@@]1(C)c1cccc(O)c1", "values": [
      {"measurement": "Ki", "setting": "[10]", "result": 135, "unit": "nM"},
      {"measurement": "Ratio Ki", "setting": "[11]", "result": 0.72},
      {"measurement": "Ki", "setting": "Mu-type opioid receptor [12]", "result": 97.7, "unit": "nM"}
    ]},
    {"smiles": "CC(C)[C@@H](CN1CC[C@@](C)(c2cccc(O)c2)[C@@H](C)C1)NC(=O)[C@H]1Cc2ccc(O)cc2CN1C", "values": [
      {"measurement": "Ratio Ki", "setting": "[1]", "result": 11600},
      {"measurement": "Ratio Ki", "setting": "[2]", "result": 700}
    ]},
    {"smiles": "N=C(N)NCCC[C@@H]1NC(=O)[C@H](CCCNC(=N)N)NC(=O)[C@H](NC(=O)[C@H](Cc2ccccc2)NC(=O)CNC(=O)CNC(=O)[C@H](Cc2ccc(O)cc2)NCc2ccccc2)CC(=O)NC[C@@H](C(=O)N[C@@H](CCCNC(=N)N)C(=O)N2CCC[C@H]2C(=O)N[C@@H](CCCCN)C(N)=O)NC1=O", "values": [
      {"measurement": "Ki", "setting": "[6]", "result": 30, "unit": "nM"}
    ]},
    {"smiles": "CC(=O)N1Cc2cc(O)ccc2C[C@@H]1C(=O)N[C@H](CN1CC[C@@](C)(c2cccc(O)c2)[C@@H](C)C1)C(C)C", "values": [
      {"measurement": "Ratio Ki", "setting": "[1]", "result": "> 34"},
      {"measurement": "Ratio Ki", "setting": "[2]", "result": 5},
      {"measurement": "Ki", "setting": "[14]", "result": 164, "unit": "nM"}
    ]},
    {"smiles": "CC(C)[C@@H](CN1CC[C@@](C)(c2cccc(O)c2)[C@@H](C)C1)NC(=O)[C@H]1Cc2ccc(O)cc2CN1", "note": "[JDTIC]", "values": [
      {"measurement": "Ki", "setting": "Mu-type opioid receptor [15]", "result": 2.16, "unit": "nM"},
      {"measurement": "Ki", "setting": "[16]", "result": "> 300", "unit": "nM"}
    ]}
  ]
}
